From patent publication US10548316B2, “Diarylazole compound and harmful organism control agent” (Nippon Soda Co., Ltd., priority 2015, dated 2020)

Columns and labels:
Type in all cases: in vivo
[1] = test system: Ornithodorus moubata; test: Feeding effect test against Ornithodorus moubata; conditions: 10 ppm in defibrin blood of sheep; third-nymphs; 14 days after the blood sucking
Experimental: A DMSO solution of the compound of the present invention was mixed with a defibrin blood of sheep to obtain a mixed solution with a concentration of 10 ppm. 2 ml of this mixed solution was placed in a container and capped with a parafilm membrane. Then, 20 third-nymphs of Ornithodorus moubata ere released to suck the blood through the parafilm membrane for about 30 minutes. Then, the nymphs were transferred to a storage container and incubated in a thermostatic chamber with a temperature of 28° C. and a humidity of 80%, and life or death judgement and developmental stage-investigation was performed 14 days after the blood sucking. The test was repeated twice.

[2] = test system: Aphis craccivora; test: Efficacy test against Aphis craccivora; conditions: 96 h, spray on infested cowpea plants, nymphs, 4 days after spraying, read-out: mortality rate
Experimental: (§1) 5 parts of the compound of the present invention, 93.6 parts of dimethylformamide, and 1.4 parts of polyoxyethylene alkylaryl ether were mixed and dissolved to prepare an emulsion (I) of 5% of the active ingredient.
(§2) The insect mortality rate and the control rate were calculated by the following formula. Insect mortality rate (%)=(number of dead insects/number of sample insects)×100 Prevention rate=[1−(Nt)/(Nc)]×100
Cowpea plants were raised in No. 3 pots and the first true leaves were inoculated with Aphis craccivora nymphs. Emulsion (I) was diluted with water so that the concentration of the compound of the present invention reaches 125 ppm, followed by spraying the diluted liquid on the cowpea plants infested with Aphis craccivora nymphs. The cowpea plants were then placed in a thermostatic chamber with a temperature of 25° C. and a humidity of 60%. Life or death judgement was performed after 4 days were passed from the spraying, and the insect mortality rate of Aphis craccivora was calculated. The test was repeated twice.

[3] = test system: Culex pipiens; test: Efficacy test against Culex pipiens; conditions: Culex pipiens, 24 h, read-out: insect mortality rate
Experimental: as §1, §2
Emulsion (I) was diluted with water so that the concentration of the compound of the present invention reaches 2 ppm to prepare a chemical solution for test. 20 first-instar larvae of Culex pipiens were released into 100 ml of the chemical solution for test, then the number of dead insects was calculated after 1 day was passed, and the insect mortality rate was calculated by the formula. The test was repeated twice.

[4] = test system: Phyllotreta striolata; test: Efficacy test against Phyllotreta striolata; conditions: 168 h, spray on bok choy seedlings, adults, 7 days after releasing, read-out: insect mortality rate
Experimental: as §1, §2
Emulsion (I) was diluted with water so that the compound of the present invention reaches 125 ppm to prepare a test solution. The above diluted solution was sprayed on bok choy seedlings (seventh true leaf development stage) planted in No. 3 pots. After air-drying, the bok choy seedlings were put in a plastic cup and 10 adult Phyllotreta striolata were released therein. The plastic cup was stored in a thermostatic chamber with a temperature of 25° C. and a humidity of 65%, and life or death judgment was performed 7 days after releasing Phyllotreta triolata, and the insect mortality rate was calculated by the formula. The test was repeated twice.

[5] = test system: Musca domestica; test: Efficacy test against Musca domestica; conditions: 100 ppm on cube sugar, adult female, after 24 hours, read-out: insect mortality rate
Experimental: as §2
The compound of the present invention was diluted with acetone, followed by dropping to 1 g of cube sugar so that the concentration reaches to 100 ppm. The cube sugar was placed in a plastic cup and 10 adult female Musca domestica were released therein, followed by putting a lid on the cup. The cup was kept at 25° C., and life or death judgement was performed after 24 hours was passed from the releasing of Musca domestica, and the insect mortality rate was calculated by the formula. The test was repeated twice.

[6] = test system: Spodoptera litura; test: Efficacy test against Spodoptera litura; conditions: 144 h, cabbage leaves soaked, second-instar larvae, after 6 days, read-out: insect mortality rate
Experimental: as §1, §2
(§3) Emulsion (I) was diluted with water so that the concentration of the compound of the present invention reaches 125 ppm. Cabbage leaves were soaked in the diluted liquid for 30 seconds. Then the cabbage leaves were put on Petri dishes, followed by inoculating 5 second-instar larvae of Spodoptera litura. The Petri dishes were placed in a thermostatic chamber with a temperature was 25° C. and a humidity of 60%. Life or death judgement was performed after 6 days were passed, and the insect mortality rate was calculated. The test was repeated twice.

[7] = test system: Lucilia cuprina larvae; test: Contact/feeding effect test on Lucilia cuprina larvae; conditions: 1000 ppm in horse meat, 48 hours, read-out: insect mortality rate
Experimental: A DMSO solution of the compound of the present invention was mixed with horse meat to obtain a mixture with a concentration of 1000 ppm. 20 Lucilia cuprina larvae were introduced into a test tube with the mixture. The tube was incubated in a thermostatic chamber with a temperature of 28° C. and a humidity of 80%, and life and death judgement was performed on the larvae 48 hours after the start of the test. The test was repeated twice.

[8] = test system: Aedes aegypti larvae; test: Contact/feeding effect test on Aedes aegypti larvae; conditions: final concentration of 10 ppm, first-instar larvae, 48 hours, read-out: insect mortality rate
Experimental: A DMSO solution of the compound of the present invention was diluted with water to obtain a diluted solution with a concentration of 100 ppm. 10 first-instar larvae of Aedes aegypti were placed in each well of a 96-well microtiter plate together with breeding water, and 1/10 volume of the diluted solution with a concentration of 100 ppm was added so that the test was carried out at a final concentration of 10 ppm. The microtiter plate was incubated in a thermostatic chamber with a temperature of 28° C. and a humidity of 80%, and life or death judgement was performed on the larvae was investigated 48 hours after the chemical treatment. The test was repeated twice.

[9] = test system: Plutella xylostella; test: Efficacy test against Plutella xylostella; conditions: 72 h, cabbage leaves soaked, second-instar larvae, after 3 days, read-out: mortality rate
Experimental: as §1, §2
as §3, with “of Plutella xylostella.” for “of Spodoptera litura.”, “after 3” for “after 6”

[10] = test system: Rhipicephalus microplus; test: Contact effect test on Rhipicephalus microplus; conditions: larvae, 24 hours after the chemical treatment, read-out: insect mortality rate
Experimental: A DMSO solution of the compound of the present invention was diluted with water to obtain a test solution with a concentration of 100 ppm. This chemical solution was dropped into a container containing 20 Rhipicephalus microplus larvae, and then incubated in a thermostatic chamber with a temperature of 28° C. and a humidity of 80%. Life or death judgement was performed on the larvae 24 hours after the chemical treatment. The test was repeated twice.

[11] = test system: Pseudaletia separata; test: Efficacy test against Pseudaletia separata (artificial diet); conditions: in vivo
Experimental: as §1, §2
0.8 g of commercially available artificial diet (Insecta US, manufactured by Nosan Corporation) and 1 μl of emulsion (1) were well mixed and 0.2 g of the resulting mixture was packed in a plastic test container (1.4 ml) per each treatment group to prepare test feeds.
2 second-instar larvae of Pseudaletia separata were inoculated into each treatment group and sealed with a plastic lid. The plastic test containers were placed in a thermostatic chamber with a temperature of 25° C., and the insect mortality rate and the food intake amount were investigated on the fifth day. The test was repeated twice.
Further, a test under the same conditions except that the compound of the present invention was removed from emulsion (I) was conducted as a solvent control group.

[12] = test system: Rhopalosiphum padi; test: Efficacy test against Rhopalosiphum padi (seed treatment); conditions: 0.1 g compound per 10 g wheat seeds, adults released 7 days after seeding, counted after 6 days
Experimental: as §2
Nt: number of parasites in spray-treatment area
Nc: number of parasites in control area
0.1 g of each compound of the present invention was diluted with 2 ml of acetone to prepare chemical solutions for test. 10 g of wheat seeds was added to the chemical solution for test and air dried, followed by seedling 100 seeds in a planter. After keeping the planter in a warm room with a temperature of 25° C. for 7 days, 50 adult Rhopalosiphum padi were released in the planter. The number of surviving parasitized Rhopalosiphum padi was investigated after 6 days were passed, and the prevention rate was calculated by the formula. The test was repeated twice.

| Structure (SMILES) | insect mortality rate [1] | mortality at 125 ppm [2] | mortality at 2 ppm [3] | mortality at 125 ppm [4] | mortality at 100 ppm [5] | mortality at 125 ppm [6] | mortality at 1000 ppm [7] | mortality at 10 ppm [8] | mortality at 125 ppm [9] | mortality at 100 ppm [10] | insect mortality rate [11] | prevention rate [12] |
| --- | --- | --- | --- | --- | --- | --- | --- | --- | --- | --- | --- | --- |
| CCS(=O)(=O)c1cc(C(F)(F)F)ccc1-n1ncc(-c2ccc(OC(F)(F)F)cc2)c1N [Compound 1-12, 1-(2-(ethylsulfonyl)-4-(trifluoromethyl)phenyl)-4-(4-(trifluoromethoxy)phenyl)-1H-pyrazol-5-amine] | ≥ 90% | ≥ 80% | 100% | ≥ 80% | ≥ 80% | ≥ 80% | ≥ 90% | ≥ 90% | ≥ 80% | ≥ 90% |  |  |
| CCS(=O)(=O)c1cc(C(F)(F)F)ccc1-n1ncc(-c2ccc(OC(F)(F)F)cc2)c1Cl [Compound 1-17, 5-chloro-1-(2-(ethylsulfonyl)-4-(trifluoromethyl)phenyl)-4-(4-(trifluoromethoxy)phenyl)-1H-pyrazole] |  | ≥ 80% |  | ≥ 80% |  | ≥ 80% |  |  | ≥ 80% |  |  |  |
| CCS(=O)(=O)c1cc(C(F)(F)F)ccc1-n1ncc(-c2ccc(C(F)(F)C(F)(F)F)nc2)c1N [Compound 1-33] |  |  |  |  |  |  |  |  |  |  | 100% | ≥ 80% |
